ChEMBL document CHEMBL1142023, “Structure-activity relationships of dimeric PPAR agonists” (Bioorg Med Chem Lett, 2005)

Columns and labels:
[1] = molecular target: T1, Peroxisome proliferator-activated receptor alpha (Homo sapiens, UniProt Q07869); test: Effective concentration for human peroxisome proliferator-activated receptor alpha
T1 sequence (Q07869 whole entry): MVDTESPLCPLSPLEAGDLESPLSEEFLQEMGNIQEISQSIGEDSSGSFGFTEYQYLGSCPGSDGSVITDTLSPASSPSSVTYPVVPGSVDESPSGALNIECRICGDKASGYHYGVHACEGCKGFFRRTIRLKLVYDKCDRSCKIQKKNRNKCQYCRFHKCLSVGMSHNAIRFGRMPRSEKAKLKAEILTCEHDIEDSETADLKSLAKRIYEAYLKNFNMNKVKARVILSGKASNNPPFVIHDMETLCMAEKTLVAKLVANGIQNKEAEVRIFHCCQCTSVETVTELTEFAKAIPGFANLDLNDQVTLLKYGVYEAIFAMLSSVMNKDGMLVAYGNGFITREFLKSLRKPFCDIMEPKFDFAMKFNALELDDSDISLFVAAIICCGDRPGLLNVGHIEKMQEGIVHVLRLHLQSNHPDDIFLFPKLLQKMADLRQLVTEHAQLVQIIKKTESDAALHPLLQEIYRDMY

[2] = molecular target: T2, Peroxisome proliferator-activated receptor delta (Homo sapiens, UniProt Q03181); test: Effective concentration for human peroxisome proliferator-activated receptor delta
T2 sequence (Q03181 whole entry): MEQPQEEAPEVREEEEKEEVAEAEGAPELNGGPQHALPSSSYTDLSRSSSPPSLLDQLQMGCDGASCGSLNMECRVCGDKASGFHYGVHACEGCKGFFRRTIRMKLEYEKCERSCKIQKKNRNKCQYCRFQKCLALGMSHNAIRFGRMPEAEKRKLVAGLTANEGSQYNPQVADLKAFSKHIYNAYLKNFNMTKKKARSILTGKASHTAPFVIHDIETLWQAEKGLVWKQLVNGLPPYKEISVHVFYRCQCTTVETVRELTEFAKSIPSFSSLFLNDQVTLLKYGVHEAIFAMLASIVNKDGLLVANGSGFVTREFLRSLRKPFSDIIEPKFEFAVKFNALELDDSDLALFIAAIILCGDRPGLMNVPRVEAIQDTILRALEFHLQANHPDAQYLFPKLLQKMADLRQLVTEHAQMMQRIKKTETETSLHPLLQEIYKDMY

Row | EC50 [1] [µM] | EC50 [2] [µM] | Structure (SMILES)
1 | 1.1 | 19 | CCOC(Cc1ccc(OCC/C=C/c2ccccc2)cc1)C(=O)O (single isomer, unassigned)
2 | 9.6 |  | CCOC(Cc1ccc(OCC#CCOc2ccc(C[C@@H](OCC)C(=O)O)cc2)cc1)C(=O)O (single isomer, unassigned)
3 | 15 |  | CCO[C@@H](Cc1ccc(OCc2ccc(COc3ccc(C[C@H](OCC)C(=O)O)cc3)cc2)cc1)C(=O)O
4 | 3.7 | 15 | CCOC(Cc1ccc(OC/C=C/C#CC#C/C=C/COc2ccc(C[C@@H](OCC)C(=O)O)cc2)cc1)C(=O)O (single isomer, unassigned)
5 | 1.8 | 4.1 | CCO[C@H](Cc1ccc(OC/C=C(/C)C#Cc2ccc(-c3ccc(C#C/C(C)=C/COc4ccc(C[C@@H](OCC)C(=O)O)cc4)cc3)cc2)cc1)C(=O)O
6 | 6.7 | 2.1 | CCO[C@H](Cc1ccc(OC/C=C(\C)c2ccc(-c3ccc(/C(C)=C/COc4ccc(C[C@@H](OCC)C(=O)O)cc4)cc3)cc2)cc1)C(=O)O
7 | 0.7 | 2.2 | CCOC(Cc1ccc(OC/C=C/C#Cc2ccc(C#C/C=C/COc3ccc(C[C@@H](OCC)C(=O)O)cc3)cc2)cc1)C(=O)O (single isomer, unassigned)
8 | 2.3 |  | CCO[C@H](Cc1ccc(OC/C=C(\C)C#Cc2ccc3c(c2)C(=O)c2cc(C#C/C(C)=C/COc4ccc(C[C@@H](OCC)C(=O)O)cc4)ccc2-3)cc1)C(=O)O (stereo in doubt)
9 | 0.3 | 11 | CCO[C@@H](Cc1ccc(OC/C=C(/C)C#Cc2ccccc2)cc1)C(=O)O
10 | 0.07 | 6.9 | CCO[C@H](Cc1ccc(OC/C=C/C#Cc2ccccc2)cc1)C(=O)O
11 | 1.2 | 1.8 | CCOC(Cc1ccc(OC/C=C(\C)C#Cc2ccc(C#C/C(C)=C/COc3ccc(C[C@@H](OCC)C(=O)O)cc3)cc2)cc1)C(=O)O (single isomer, unassigned)
12 | 1.6 | 18 | CCOC(Cc1ccc(OC/C=C/c2ccccc2)cc1)C(=O)O (single isomer, unassigned)
